By IC50 is commonly meant the concentration needed to halve the response being measured.

This is an account of results in ChEMBL document CHEMBL5331060, “Bisindole natural products: A vital source for the development of new anticancer drugs” (Eur J Med Chem, 2022).

What all share (assay type): functional, cell-based
One experiment relates to A549. In words: Antiproliferative activity against human A549 cells assessed as inhibition of cell growth by MTT assay. Background: Tetrazolium dyes change colour on reduction, which living cells bring about.
For experiment [1], the system named is K562. In words: Antiproliferative activity against human K562 cells assessed as inhibition of cell growth by MTT assay.
In another experiment the test system is AGS. The experiment is described as follows: Antiproliferative activity against human AGS cells assessed as inhibition of cell growth incubated for 24 hrs by MTT assay.
The next experiment relates to L1210. In words: Antiproliferative activity against mouse L1210 cells assessed as inhibition of cell growth incubated for 24 hrs by MTT assay. The settings on record: L1210, 24 h.
Another experiment relates to HL-60. The experiment is described as follows: Antiproliferative activity against human HL-60 cells assessed as inhibition of cell growth incubated for 48 hrs by WST-1 assay. Conditions: HL-60, 48 h.
Experiment [2] relates to K562. The experiment is described as follows: Antiproliferative activity against human K562 cells assessed as inhibition of cell growth incubated for 48 hrs by WST-1 assay. The settings on record: K562, 48 h.

Structures are written as SMILES. In brackets after ≈: the same amount, converted by molar mass.

As to `CO[C@@]1(C(=O)c2c[nH]c3cc(O)ccc23)N=C(c2c[nH]c3ccccc23)C(=O)N1`, the IC50 with A549 and in the experiment on K562 [1] was 24.2 µM each time.

In the case of `O=C(c1nc(-c2c[nH]c3cc(Br)ccc23)c[nH]1)c1c[nH]c2cc(O)ccc12` [BROMOTOPSENTIN], the 50% inhibitory concentration (IC50) in the experiment with AGS and in the experiment on L1210 was 1.1 µg/mL (≈ 2.61 µM) throughout.

Take `CO[C@@]1(C(=O)c2c[nH]c3cc(O)ccc23)N=C(c2c[nH]c3cc(Br)ccc23)C(=O)N1`: the half-maximal inhibitory concentration (IC50) in the experiment on A549 and with K562 [1] was 24.2 µM each time.

With `CC[C@]12CN3CCc4c([nH]c5ccccc45)[C@@](C(=O)OC)(c4cc5c(cc4OC)N(C)[C@H]4[C@@](O)(C(=O)OC)[C@H](OC(C)=O)[C@]6(CC)C=CCN7CC[C@]54[C@@H]76)C[C@@H](C3)[C@H]1O2` [VINLEUROSINE], the IC50 with HL-60 and with K562 [2] was 56.2 µM in each case.

Take `CO[C@@]1(C(=O)c2c[nH]c3ccccc23)N=C(c2c[nH]c3cc(Br)ccc23)C(=O)N1`: the IC50 in the experiment on A549 and with K562 [1] was 24.2 µM throughout.

With `CCC(=O)C[C@@H]1CN(C=O)CCc2c([nH]c3ccccc23)[C@@](C(=O)OC)(c2cc3c(cc2OC)N(C)[C@@H]2[C@]34CCN3CC=C[C@@](CC)(C[C@]2(O)C(=O)OC)[C@H]34)C1`, the IC50 in the experiment with HL-60 and in the experiment with K562 [2] was 56.2 µM each time.

With `CC[C@]12CN3CC[C@@]45C(=Nc6ccccc64)[C@@](C(=O)OC)(c4cc6c(cc4OC)N(C)[C@H]4[C@@](O)(C(=O)OC)[C@H](OC(C)=O)[C@]7(CC)C=CCN8CC[C@]64[C@@H]87)C[C@H]([C@H]1O2)[C@H]35`, the IC50 in the experiment with HL-60 and in the experiment with K562 [2] was 56.2 µM throughout.

Turning to `CO[C@@]1(C(=O)c2c[nH]c3ccccc23)N=C(c2c[nH]c3ccccc23)C(=O)N1`, the IC50 in the experiment on A549 and in the experiment on K562 [1] was 24.2 µM each time.

Take `O=C(NCC(=O)c1c[nH]c2ccccc12)NC(=O)c1c[nH]c2cc(O)ccc12`: the IC50 in the experiment on A549 and with K562 [1] was > 90 µM each time.

On to `CCC(=O)[C@H](O)[C@@H]1CN(C=O)CCc2c([nH]c3ccccc23)[C@@](C(=O)OC)(c2cc3c(cc2OC)N(C)[C@H]2[C@@](O)(C(=O)OC)[C@H](OC(C)=O)[C@]4(CC)C=CCN5CC[C@]32[C@@H]54)C1`, for which the IC50 in the experiment on HL-60 and with K562 [2] was > 100 µM in each case.

Consider `CC/C1=C/N(C=O)CCc2c([nH]c3ccccc23)[C@@](C(=O)OC)(c2cc3c(cc2OC)N(C)[C@H]2[C@@](O)(C(=O)OC)[C@H](OC(C)=O)[C@]4(CC)C=CCN5CC[C@]32[C@@H]54)CC(=O)C1`, for which the IC50 in the experiment with HL-60 and with K562 [2] was 56.2 µM throughout.

Take `O=C1NC[C@H](c2c[nH]c3cc(Br)ccc23)N=C1c1c[nH]c2cc(Br)ccc12` [HAMACANTHIN B]: the IC50 in the experiment on AGS and with L1210 was 1.1 µg/mL (≈ 2.26 µM) in each case.

Take `O=C(NCC(=O)c1c[nH]c2cc(Br)ccc12)NC(=O)c1c[nH]c2cc(O)ccc12`: the IC50 in the experiment on A549 and in the experiment with K562 [1] was > 90 µM each time.

Consider `O=C1N[C@H](c2c[nH]c3ccccc23)CN=C1c1c[nH]c2cc(Br)ccc12`, for which the IC50 in the experiment on AGS and in the experiment on L1210 was 1.1 µg/mL (≈ 2.7 µM) in each case.

For `O=C1N[C@H](c2c[nH]c3cc(Br)ccc23)CN[C@H]1c1c[nH]c2cc(Br)ccc12`, the IC50 with AGS and with L1210 was 1.1 µg/mL (≈ 2.25 µM) in each case.

Consider `CC[C@]12C=CCN3CC[C@@]4(c5cc([C@@]6(C(=O)OC)C[C@@H]7CC(=O)N(CCc8c6[nH]c6ccccc86)C7)c(OC)cc5N(C)[C@H]4[C@@](O)(C(=O)OC)C1)[C@@H]32`, for which the IC50 in the experiment on HL-60 came to 9.1 µM; with K562 [2] it was 9.3 µM.
